Counter-ions that a name gives are not always drawn.

The target in one test is SSTR5 (Homo sapiens (Human), UniProt P35346). As to the kind of experiment: SSTR5 binding assay. The note with it: CHO-K1 membranes expressing cloned human SSTR5. Here is the method: The receptor-ligand binding assays of all 5 subtype of SSTRs were performed with membranes isolated from Chinese hamster ovary (CHO)-K1 cells stably expressing the cloned human somatostatin receptors in 96-well format as previous reported.
Sequence of SSTR5 (P35346 whole entry): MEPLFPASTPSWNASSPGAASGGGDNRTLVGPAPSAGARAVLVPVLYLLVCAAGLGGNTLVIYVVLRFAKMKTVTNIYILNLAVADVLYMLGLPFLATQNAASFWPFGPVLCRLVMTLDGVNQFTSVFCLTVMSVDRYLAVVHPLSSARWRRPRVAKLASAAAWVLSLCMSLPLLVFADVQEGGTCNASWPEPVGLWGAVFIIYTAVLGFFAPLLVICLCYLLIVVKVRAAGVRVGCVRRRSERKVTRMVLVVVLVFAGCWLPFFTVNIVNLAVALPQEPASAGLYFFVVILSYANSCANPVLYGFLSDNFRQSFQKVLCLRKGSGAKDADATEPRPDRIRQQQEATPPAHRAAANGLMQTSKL
The stable cell lines for SSTR1-SSTR5 were developed by stably transfecting with DNA for all five SSTRs using Lipofectamine. […] The assay buffer consisted of 50 mM TrisHCl (pH 7.8) with 1 mM EGTA, […] MgCl2, leupeptin (10 μg/mL), pepstatin (10 μg/mL), bacitracin (200 μg/mL), and aprotinin (0.5 μg/mL). CHO-K1 cell membranes, radiolabeled somatostatin, and unlabeled test compounds were resuspended or diluted in this assay buffer. Unlabeled test compounds were examined over a range of concentrations from 0.01 nM to 10,000 nM.
Compounds exemplified were tested in the SSTR5 binding assay.
Regarding `CC(C)(C)n1cc(CN2CCC3(CC2)CN(c2ccc(C(=O)O)cc2)C(=O)O3)c(-c2ccc(F)c(F)c2F)n1` [Example 1-1, 4-(8-{[1-tert-Butyl-3-(2,3,4-trifluorophenyl)-1H-pyrazol-4-yl]methyl}-2-oxo-1-oxa-3,8-diazaspiro[4.5]dec-3-yl)benzoic acid, TFA salt], the 50% inhibitory concentration (IC50) was found to be 2.23 nM.

On to `O=C(O)c1ccc(N2CC3(CCN(Cc4cn(C5CCCCC5)nc4-c4ccc(F)c(Cl)c4)CC3)OC2=O)cc1` [Example 1-2, 4-(8-{[3-(3-Chloro-4-fluorophenyl)-1-cyclohexyl-1H-pyrazol-4-yl]methyl}-2-oxo-1-oxa-3,8-diazaspiro[4.5]dec-3-yl)benzoic acid, TFA salt], for which the concentration for half-maximal inhibition (IC50) amounted to 0.943 nM.

In the case of `O=C(O)c1ccc(N2CC3(CCN(Cc4cn(-c5ccccc5)nc4-c4ccccc4)CC3)OC2=O)cc1` [Example 1-3, 4-{8-[(1,3-Diphenyl-1H-pyrazol-4-yl)methyl]-2-oxo-1-oxa-3,8-diazaspiro[4.5]dec-3-yl}benzoic acid, TFA salt], the concentration for half-maximal inhibition (IC50) turned out to be 2.81 nM.

The molecule `COc1ccc(-c2nn(C3CC3)cc2CN2CCC3(CC2)CN(c2ccc(C(=O)O)cc2)C(=O)O3)cc1` [Example 1-4, 4-(8-{[1-Cyclopropyl-3-(4-methoxyphenyl)-1,1-pyrazol-4-yl]methyl}-2-oxo-1-oxa-3,8-diazaspiro[4.5]dec-3-yl)benzoic acid, TFA salt] showed a concentration for half-maximal inhibition (IC50) of 4.59 nM.

Take `O=C(O)c1ccc(N2CC3(CCN(Cc4cn(C5CCCCC5)nc4-c4cccc(C(F)(F)F)c4)CC3)OC2=O)cc1` [Example 1-5, 4-[8-({1-Cyclohexyl-3-[3-(trifluoromethyl)phenyl]-1H-pyrazol-4-yl}methyl)-2-oxo-1-oxa-3,8-diazaspiro[4.5]dec-3-yl]benzoic acid, TFA salt]: the half-inhibitory concentration (IC50) stood at 1.53 nM.

Regarding `Cc1ccc(-n2cc(CN3CCC4(CC3)CN(c3ccc(C(=O)O)cc3)C(=O)O4)c(-c3ccc(F)c(F)c3F)n2)c(C)c1` [Example 1-6, 4-(8-{[1-(2,4-Dimethylphenyl)-3-(2,3,4-trifluorophenyl)-1H-pyrazol-4-yl]methyl}-2-oxo-1-oxa-3,8-diazaspiro[4.5]dec-3-yl)benzoic acid, TFA salt], the concentration for half-maximal inhibition (IC50) stood at 1.54 nM.

`CC(C)(C)n1cc(CN2CCC3(CC2)CN(c2ccc(C(=O)O)cc2)C(=O)O3)c(-c2cc(F)c(F)cc2F)n1` [Example 1-7, 4-(8-{[1-tert-Butyl-3-(2,4,5-trifluorophenyl)-1H-pyrazol-4-yl]methyl}-2-oxo-1-oxa-3,8-diazaspiro[4.5]dec-3-yl)benzoic acid, TFA salt]: the IC50 came to 2.62 nM.

Consider `CC(C)(C)n1cc(CN2CCC3(CC2)CN(c2ccc(C(=O)O)cc2)C(=O)O3)c(-c2c(F)cc(F)cc2F)n1` [Example 1-8, 4-(8-{[1-tert-Butyl-3-(2,4,6-trifluorophenyl)-1H-pyrazol-4-yl]methyl}-2-oxo-1-oxa-3,8-diazaspiro[4.5]dec-3-yl)benzoic acid, TFA salt], for which the IC50 stood at 2.16 nM.

`COc1ccc(-c2nn(-c3ccccc3)cc2CN2CCC3(CC2)CN(c2ccc(C(=O)O)cc2)C(=O)O3)cc1` [Example 1-9, 4-(8-{[3-(4-Methoxyphenyl)-1-phenyl-1H-pyrazol-4-yl]methyl}-2-oxo-1-oxa-3,8-diazaspiro[4.5]dec-3-yl)benzoic acid, TFA salt] had an IC50 of 2 nM.

Regarding `COc1ccc(-c2nn(C(C)(C)C)cc2CN2CCC3(CC2)CN(c2ccc(C(=O)O)cc2)C(=O)O3)cc1` [Example 1-10, 4-(8-{[1-tert-Butyl-3-(4-methoxyphenyl)-1H-pyrazol-4-yl]methyl}-2-oxo-1-oxa-3,8-diazaspiro[4.5]dec-3-yl)benzoic acid, TFA salt], the half-maximal inhibitory concentration (IC50) was 2.86 nM.

Turning to `Cc1cc(N2CC3(CCN(Cc4cn(C(C)(C)C)nc4-c4cc(F)c(Cl)cc4F)CC3)OC2=O)ccc1C(=O)O` [Example 1-11, 4-(8-{[1-tert-Butyl-3-(4-chloro-2,5-difluorophenyl)-1H-pyrazol-4-yl]methyl}-2-oxo-1-oxa-3,8-diazaspiro[4.5]dec-3-yl)-2-methylbenzoic acid, TFA salt], the IC50 came to 6.24 nM.

Take `CCOc1ccc(-c2nn(-c3ccccc3)cc2CN2CCC3(CC2)CN(c2ccc(C(=O)O)cc2)C(=O)O3)cc1` [Example 1-12, 4-(8-{[3-(4-Ethoxyphenyl)-1-phenyl-1H-pyrazol-4-yl]methyl}-2-oxo-1-oxa-3,8-diazaspiro[4.5]dec-3-yl)benzoic acid, TFA salt]: the IC50 came to 5.32 nM.

For the molecule `CC(C)(C)n1cc(CN2CCC3(CC2)CN(c2ccc(C(=O)O)c(Cl)c2)C(=O)O3)c(-c2cc(F)c(Cl)cc2F)n1` [Example 1-13, 4-(8-{[1-tert-Butyl-3-(4-chloro-2,5-difluorophenyl)-1H-pyrazol-4-yl]methyl}-2-oxo-1-oxa-3,8-diazaspiro[4.5]dec-3-yl)-2-chlorobenzoic acid, TFA salt], the IC50 is 4.09 nM.

For the molecule `CC(C)n1cc(CN2CCC3(CC2)CN(c2ccc(C(=O)O)cc2)C(=O)O3)c(-c2ccc(F)c(F)c2F)n1` [Example 1-17, 4-(2-Oxo-8-{[1-(propan-2-yl)-3-(2,3,4-trifluorophenyl)-1H-pyrazol-4-yl]methyl}-1-oxa-3,8-diazaspiro[4.5]dec-3-yl)benzoic acid, TFA salt], the half-maximal inhibitory concentration (IC50) is 2.14 nM.

`CCCCn1cc(CN2CCC3(CC2)CN(c2ccc(C(=O)O)cc2)C(=O)O3)c(-c2ccc(F)c(F)c2F)n1` [Example 1-18, 4-(8-{[1-Butyl-3-(2,3,4-trifluorophenyl)-1H-pyrazol-4-yl]methyl}-2-oxo-1-oxa-3,8-diazaspiro[4.5]dec-3-yl)benzoic acid, TFA salt] returned an IC50 of 2.7 nM.

Regarding `O=C(O)c1ccc(N2CC3(CCN(Cc4cn(C5CCCCC5)nc4-c4ccc(F)c(F)c4F)CC3)OC2=O)cc1` [Example 1-19, 4-(8-{[1-Cyclohexyl-3-(2,3,4-trifluorophenyl)-1H-pyrazol-4-yl]methyl}-2-oxo-1-oxa-3,8-diazaspiro[4.5]dec-3-yl)benzoic acid, TFA salt], the IC50 turned out to be 1.33 nM.

`O=C(O)c1ccc(N2CC3(CCN(Cc4cn(-c5ccc(F)cc5)nc4-c4ccc(F)cc4)CC3)OC2=O)cc1` [Example 1-20, 4-(8-{[1,3-Bis(4-fluorophenyl)-1H-pyrazol-4-yl]methyl}-2-oxo-1-oxa-3,8-diazaspiro[4.5]dec-3-yl)benzoic acid, TFA salt] displayed an IC50 of 5.33 nM.

Turning to `O=C(O)c1ccc(N2CC3(CCN(Cc4cn(-c5cccc6c5OCCO6)nc4-c4ccc(F)c(F)c4F)CC3)OC2=O)cc1` [Example 1-21, 4-(8-{[1-(2,3-Dihydro-1,4-benzodioxin-5-yl)-3-(2,3,4-trifluorophenyl)-1H-pyrazol-4-yl]methyl}-2-oxo-1-oxa-3,8-diazaspiro[4.5]dec-3-yl)benzoic acid, TFA salt], the concentration for half-maximal inhibition (IC50) is 3.21 nM.

In the case of `COc1cccc(-c2nn(-c3ccccc3)cc2CN2CCC3(CC2)CN(c2ccc(C(=O)O)cc2)C(=O)O3)c1` [Example 1-22, 4-(8-{[3-(3-Methoxyphenyl)-1-phenyl-1H-pyrazol-4-yl]methyl}-2-oxo-1-oxa-3,8-diazaspiro[4.5]dec-3-yl)benzoic acid, TFA salt], the IC50 was found to be 4.87 nM.

For `O=C(O)c1ccc(N2CC3(CCN(Cc4cn(C5CCCCC5)nc4-c4ccc(OC(F)(F)F)cc4)CC3)OC2=O)cc1` [Example 1-23, 4-[8-({1-Cyclohexyl-3-[4-(trifluoromethoxy)phenyl]-1H-pyrazol-4-yl}methyl)-2-oxo-1-oxa-3,8-diazaspiro[4.5]dec-3-yl]benzoic acid, TFA salt], the half-maximal inhibitory concentration (IC50) was found to be 2.26 nM.

Consider `O=C(O)c1ccc(N2CC3(CCN(Cc4cn(C5CCCCC5)nc4-c4ccc(C(F)(F)F)cc4)CC3)OC2=O)cc1` [Example 1-24, 4-[8-({1-Cyclohexyl-3-[4-(trifluoromethyl)phenyl]-1H-pyrazol-4-yl}methyl)-2-oxo-1-oxa-3,8-diazaspiro[4.5]dec-3-yl]benzoic acid, TFA salt], for which the IC50 was determined as 2.01 nM.

`CC1(C)C2CCC(C2)C1n1cc(CN2CCC3(CC2)CN(c2ccc(C(=O)O)cc2)C(=O)O3)c(-c2ccc(F)c(F)c2F)n1` (centres unmarked) [Example 1-25, 4-(8-{[1-(3,3-Dimethylbicyclo[2.2.1]hept-2-yl)-3-(2,3,4-trifluorophenyl)-1H-pyrazol-4-yl]methyl}-2-oxo-1-oxa-3,8-diazaspiro[4.5]dec-3-yl)benzoic acid, TFA salt] showed a half-inhibitory concentration (IC50) of 0.74 nM.

Take `O=C(O)c1ccc(N2CC3(CCN(Cc4cn(-c5ccc6ccccc6c5)nc4-c4ccc(F)c(F)c4F)CC3)OC2=O)cc1` [Example 1-26, 4-(8-{[1-(Naphthalen-2-yl)-3-(2,3,4-trifluorophenyl)-1H-pyrazol-4-yl]methyl}-2-oxo-1-oxa-3,8-diazaspiro[4.5]dec-3-yl)benzoic acid, TFA salt]: the 50% inhibitory concentration (IC50) was determined as 2.72 nM.

For `O=C(O)c1ccc(N2CC3(CCN(Cc4cn(-c5ccccc5)nc4-c4ccc(OC(F)(F)F)cc4)CC3)OC2=O)cc1` [Example 1-27, 4-[2-Oxo-8-({1-phenyl-3-[4-(trifluoromethoxy)phenyl]-1H-pyrazol-4-yl}methyl)-1-oxa-3,8-diazaspiro[4.5]dec-3-yl]benzoic acid, TFA salt], the IC50 is 12.9 nM.

The molecule `CC(C)(C)n1cc(CN2CCC3(CC2)CN(c2ccc(C(=O)O)cc2)C(=O)O3)c(-c2ccc(F)c(Cl)c2)n1` [Example 1-28, 4-(8-{[1-tert-Butyl-3-(3-chloro-4-fluorophenyl)-1H-pyrazol-4-yl]methyl}-2-oxo-1-oxa-3,8-diazaspiro[4.5]dec-3-yl)benzoic acid, TFA salt] yielded an IC50 of 0.421 nM.

The test is the same for the next values; noted with them: CHO-K1 membranes expressing cloned human SSTR5; TFA salt.
On to `COc1ccccc1-c1nn(C(C)(C)C)cc1CN1CCC2(CC1)CN(c1ccc(C(=O)O)cc1)C(=O)O2` [Example 1-14, 4-(8-{[1-tert-butyl-3-(2-Methoxyphenyl)-1H-pyrazol-4-yl]methyl}-2-oxo-1-oxa-3,8-diazaspiro[4.5]dec-3-yl)benzoic acid, TFA salt], for which the 50% inhibitory concentration (IC50) was determined as 4.7 nM.

These data come from patent US8742110B2, “Spiroxazolidinone compounds” (Merck Sharp & Dohme Corp., priority 2010, dated 2014).
